Laboratory results reported in patent US11441144B2, “Methods of polynucleotide preparation using multivalent cation salt compositions” (Geron Corporation, priority 2015, dated 2022).

Assay: Solubility of precipitate in 0.1M NaOH
Assay type: physicochemical
Settings: salts precipitated in a large excess of salt reagent
Text: The crystallization or precipitation of divalent or trivalent forms of Imetelstat was investigated using a large excess of inorganic salts of interest (900 equivalents, weight base). […] Three types of Imetelstat solution: crude Imetelstat solution (ammonium salt), purified Imetelstat (triethylammonium (TEA) salt form), and Imetelstat sodium (Na salt form), were mixed with each salt solution.
The solubilities of the precipitates isolated under the conditions of large excess of salt regent were initially investigated using the following solvents: water, acetonitrile, MeOH, EtOH, IPA (isopropyl alcohol), 0.1M NaOH, 0.1M HCl, 1M NaCl, and NMP.
(see Table 2). Solubility studies of Imetelstat precipitate obtained from a large excess of magnesium salt reagent were conducted in 1M NaCl solutions at different concentrations (2 mg/mL to 6 mg/mL) and under different pH conditions (pH 8, 9, 10, 11, 12) and analyzed by HPLC (see chromatograms of FIG. 1).

BaCl2
Solubility in a 0.1M NaOH and 1M NaCl solution: soluble
